pEC50: −log10 of the molar value. Counter-ions that a name gives are not always drawn.

Sequence of S1P1/EDG1 (P21453 whole entry): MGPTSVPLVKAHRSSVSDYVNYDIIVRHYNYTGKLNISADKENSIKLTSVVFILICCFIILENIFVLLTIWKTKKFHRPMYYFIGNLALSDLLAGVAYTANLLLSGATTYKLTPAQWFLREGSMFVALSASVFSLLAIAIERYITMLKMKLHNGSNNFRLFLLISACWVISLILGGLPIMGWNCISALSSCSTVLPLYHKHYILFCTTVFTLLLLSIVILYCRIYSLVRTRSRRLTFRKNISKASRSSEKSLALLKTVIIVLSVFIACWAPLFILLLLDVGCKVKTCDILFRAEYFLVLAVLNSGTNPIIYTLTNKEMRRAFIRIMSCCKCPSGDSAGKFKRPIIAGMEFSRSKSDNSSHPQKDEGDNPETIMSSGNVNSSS

This assay has as its target S1P1/EDG1 (Homo sapiens, UniProt P21453). Briefly: S1P1 CRE-bla CHOK1 reporter assay, inhibition of Forskolin induced cAMP. It counts as cell-based. The following applies: agonist activity range; S1P1 CRE-bla CHOK1 cells, 2 μM Forskolin; read-out: S1P1 ACTIVITY
On the procedure: Generation of S1P1-Mediated Inhibition of cAMP Reporter Assay
A mammalian expression plasmid containing S1P1/EDG1 cloned into pcDNA3.1 was purchased from Missouri S&T cDNA Resource Centre. […] S1P1/pcDNA3.1 was transfected into the CRE-bla CHO K1 (Invitrogen) cell line, and stable single cell clones were selected using standard techniques.
S1P1 CRE-Bla CHOK1 Reporter Assay—Characterization of S1P1 Agonists
Cells were seeded into 384-well black wall/clear bottom plates at 10^4 cells/well/19.5 μl assay media (DMEM-phenol free, 0.5% charcoal/dextran stripped serum, 2 mM glutamine, 0.1 mM NEAA, 1 mM Na-Pyruvate, 25 mM Hepes) and incubated for 18 hrs at 37° C. in 5% CO2. Dose response curves (10-point) were generated in 10 mM Hepes, 0.1% Pluronic F127, in the presence of Forskolin. Cells were treated with 0.5 μl compound in the presence of 2 μM Forskolin for 4 hrs at 37° C. The FRET-based β-lactamase fluorescent substrate (LiveBLAzer™-FRET B/G Loading Kit CC4-AM; Invitrogen) was prepared according to manufacturer's directions, and incubated with cells for 2 hrs at room temperature.
For the molecule `CC(C)Oc1ccc(-c2nnc(-c3cccc4c3CC[C@H]4NC(=O)N3CC(O)C3)s2)cc1C#N` [Compound 65], the pEC50 is 9.30 to 10.30.
Regarding `CC(C)Oc1ccc(-c2ncc(-c3cccc4c3CC[C@H]4NS(=O)(=O)CCN3CCC[C@H](O)C3)s2)cc1C#N` [Compound 144], the pEC50 is 8.30 to 9.30.
Turning to `CC(C)Oc1ccc(-c2nnc(-c3cccc4c3CCC[C@@H]4NC(=O)c3ccncc3)s2)cc1C#N` [Compound 241], the pEC50 was 8.30 to 9.30.
In the case of `CC(C)Oc1ccc(-c2nnc(-c3cccc4c3CCC[C@H]4NCc3cccnc3)s2)cc1C#N` [Compound 263, (R)-2-isopropoxy-5-(5-(5-((pyridin-3-ylmethyl)amino)-5,6,7,8-tetrahydronaphthalen-1-yl)-1,3,4-thiadiazol-2-yl)benzonitrile] it was 8.30 to 9.30.
On to `CC(C)Oc1ccc(-c2ncc(-c3cccc4c3CC[C@H]4NCC(=O)N3CCCC3)s2)cc1C#N` [Compound 100], for which the pEC50 is 9.30 to 10.30.
On to `CC(C)Oc1ccc(-c2ncc(-c3cccc4c3CC[C@H]4NC(=O)N3CC[C@@H](N(C)C)C3)s2)cc1C#N` [Compound 183], for which the pEC50 was 8.30 to 9.30.
For `CNCC(=O)N[C@H]1CCCc2c(-c3nnc(-c4ccc(OC(C)C)c(C#N)c4)s3)cccc21` [Compound 252], the pEC50 was 9.30 to 10.30.
In the case of `CC(C)Oc1ccc(-c2ncc(-c3cccc4c3CC[C@H]4NS(=O)(=O)CCN3CC[C@H](N)C3)s2)cc1C#N` [Compound 136] it was less than 8.30; in that of `CC(C)Oc1ccc(-c2nnc(-c3cccc4c3CCC[C@H]4NC(=O)CCNS(C)(=O)=O)s2)cc1C#N` [Compound 258], 8.30 to 9.30.
Regarding `CC(C)Oc1ccc(-c2nnc(-c3cccc4c3CCC[C@@H]4NS(=O)(=O)CCO)s2)cc1C#N` [Compound 290, (S)—N-(5-(5-(3-cyano-4-isopropoxyphenyl)-1,3,4-thiadiazol-2-yl)-1,2,3,4-tetrahydronaphthalen-1-yl)-2-hydroxyethanesulfonamide], the pEC50 was 9.30 to 10.30.
In the case of `CC(C)Oc1ccc(-c2nnc(-c3cccc4c3CCC[C@@H]4NS(=O)(=O)CC(=O)N(C)C)s2)cc1C#N` [Compound 293, (S)-2-(N-(5-(5-(3-cyano-4-isopropoxyphenyl)-1,3,4-thiadiazol-2-yl)-1,2,3,4-tetrahydronaphthalen-1-yl)sulfamoyl)-N,N-dimethylacetamide], the pEC50 is 9.30 to 10.30.
For `CNC(=O)CS(=O)(=O)N[C@H]1CCCc2c(-c3nnc(-c4ccc(OC(C)C)c(C#N)c4)s3)cccc21` [Compound 295], the pEC50 is 9.30 to 10.30.
With `CC(C)Oc1ccc(-c2nnc(-c3cccc4c3CCC[C@H]4NC(=O)[C@@H](N)CO)s2)cc1C#N` [Compound 248], the pEC50 is 9.30 to 10.30.
In the case of `CC(C)Oc1ccc(-c2nnc(-c3cccc4c3CCC[C@H]4NC(=O)c3ccncc3)s2)cc1C#N` [Compound 233] it was 8.30 to 9.30.
In the case of `CC(C)Oc1ccc(-c2nnc(-c3cccc4c3CCC[C@@H]4NC(=O)CN(C)C)s2)cc1C#N` [Compound 238] it was 8.30 to 9.30.
On to `COC(=O)N[C@@H]1CCc2c(-c3nnc(-c4ccc(OC(C)C)c(C#N)c4)s3)cccc21` [Compound 68], for which the pEC50 is 9.30 to 10.30.
In the case of `CC(C)Oc1ccc(-c2nnc(-c3cccc4c3CCC[C@H]4NCCN(C)C)s2)cc1C#N` [Compound 274, (R)-5-(5-(5-((2-(dimethylamino)ethyl)amino)-5,6,7,8-tetrahydronaphthalen-1-yl)-1,3,4-thiadiazol-2-yl)-2-isopropoxybenzonitrile] it was 8.30 to 9.30; in that of `CC(C)Oc1ccc(-c2nnc(-c3cccc4c3CCC[C@H]4NC(=O)CN)s2)cc1C#N` [Compound 250], 8.30 to 9.30; in that of `CC(C)Oc1ccc(-c2nnc(-c3cccc4c3CCC[C@H]4NS(=O)(=O)CC(=O)N(C)C)s2)cc1C#N` [Compound 292, (R)-2-(N-(5-(5-(3-cyano-4-isopropoxyphenyl)-1,3,4-thiadiazol-2-yl)-1,2,3,4-tetrahydronaphthalen-1-yl)sulfamoyl)-N,N-dimethylacetamide], 9.30 to 10.30.
In the case of `CC(C)Oc1ccc(-c2ncc(-c3cccc4c3CC[C@H]4NC(=O)N3CCNCC3)s2)cc1C#N` [Compound 188] it was 8.30 to 9.30; in that of `CC(C)Oc1ccc(-c2nnc(-c3cccc4c3CC[C@H]4NC(=O)N3CC(C(=O)O)C3)s2)cc1C#N` [Compound 50], 9.30 to 10.30; in that of `CC(C)Oc1ccc(-c2ncc(-c3cccc4c3CC[C@H]4NS(=O)(=O)CC(=O)O)s2)cc1C#N` [Compound 158, (R)-2-(N-(4-(2-(3-cyano-4-isopropoxyphenyl)thiazol-5-yl)-2,3-dihydro-1H-inden-1-yl)sulfamoyl)acetic acid], more than 10.30.
In the case of `COC(=O)CC1CCN(C(=O)N[C@@H]2CCc3c(-c4cnc(-c5ccc(OC(C)C)c(C#N)c5)s4)cccc32)CC1` [Compound 204] it was 8.30 to 9.30; in that of `CC(C)Oc1ccc(-c2ncc(-c3cccc4c3CC[C@H]4NS(=O)(=O)CCO)s2)cc1C#N` [Compound 164, (R)—N-(4-(2-(3-cyano-4-isopropoxyphenyl)thiazol-5-yl)-2,3-dihydro-1H-inden-1-yl)-2-hydroxyethanesulfonamide], 9.30 to 10.30.
In the case of `CC(C)Oc1ccc(-c2ncc(-c3cccc4c3CC[C@H]4NCC(=O)N3CC[C@@H](O)C3)s2)cc1C#N` [Compound 103], the pEC50 was 9.30 to 10.30.
In the case of `CC(C)Oc1ccc(-c2nnc(-c3cccc4c3CCC[C@@H]4NCCS(C)(=O)=O)s2)cc1C#N` [Compound 297, (S)-2-isopropoxy-5-(5-(5-((2-(methylsulfonyl)ethyl)amino)-5,6,7,8-tetrahydronaphthalen-1-yl)-1,3,4-thiadiazol-2-yl)benzonitrile], the pEC50 was 8.30 to 9.30.
In the case of `CC(C)Oc1ccc(-c2nc(-c3cccc4c3CC[C@@H]4NS(N)(=O)=O)ns2)cc1C#N` [Compound 309, (S)—N-(4-(5-(3-cyano-4-isopropoxyphenyl)-1,2,4-thiadiazol-3-yl)-2,3-dihydro-1H-inden-1-yl) sulfamide] it was 9.30 to 10.30; in that of `CC(C)Oc1ccc(-c2nnc(-c3cccc4c3CC[C@H]4NCC(=O)N(C)C)s2)cc1C#N` [Compound 22, (R)-2-((4-(5-(3-cyano-4-isopropoxyphenyl)-1,3,4-thiadiazol-2-yl)-2,3-dihydro-1H-inden-1-yl)amino)-N,N-dimethylacetamide hydrochloride], 9.30 to 10.30; in that of `CC(C)Oc1ccc(-c2ncc(-c3cccc4c3CC[C@H]4NC(=O)N3CC(O)C3)s2)cc1C#N` [Compound 171], 9.30 to 10.30.
With `CC(C)Oc1ccc(-c2nnc(-c3cccc4c3CC[C@H]4N)s2)cc1C#N` [Compound 5, (R)-5-(5-(1-amino-2,3-dihydro-1H-inden-4-yl)-1,3,4-thiadiazol-2-yl)-2isopropoxybenzonitrile hydrochloride], the pEC50 was 8.30 to 9.30.
In the case of `CNC(=O)CS(=O)(=O)N[C@@H]1CCCc2c(-c3nnc(-c4ccc(OC(C)C)c(C#N)c4)s3)cccc21` [Compound 294], the pEC50 is 9.30 to 10.30.
Consider `CC(=O)N[C@@H]1CCCc2c(-c3nnc(-c4ccc(OC(C)C)c(C#N)c4)s3)cccc21` [Compound 231, (R)—N-(5-(5-(3-cyano-4-isopropoxyphenyl)-1,3,4-thiadiazol-2-yl)-1,2,3,4-tetrahydronaphthalen-1-yl) acetamide], for which the pEC50 was 9.30 to 10.30.
In the case of `CC(C)Oc1ccc(-c2nnc(-c3cccc4c3CCC[C@@H]4NC(=O)CCN)s2)cc1C#N` [Compound 253] it was 8.30 to 9.30.

Values taken from patent publication US9481659B2, “Selective heterocyclic sphingosine 1 phosphate receptor modulators” (Celgene International II SÀRL, priority 2011, dated 2016).
